Like-named read-outs stand apart in the source and are kept apart here.
Tests used:
RORγ = molecular target: T1, RORγ (UniProt P51449); test: RORγ Gal4 Reporter Gene Assay in 293T cells (firefly and renilla luciferase); assay type: cell-based, human
T1 sequence (P51449 1-518): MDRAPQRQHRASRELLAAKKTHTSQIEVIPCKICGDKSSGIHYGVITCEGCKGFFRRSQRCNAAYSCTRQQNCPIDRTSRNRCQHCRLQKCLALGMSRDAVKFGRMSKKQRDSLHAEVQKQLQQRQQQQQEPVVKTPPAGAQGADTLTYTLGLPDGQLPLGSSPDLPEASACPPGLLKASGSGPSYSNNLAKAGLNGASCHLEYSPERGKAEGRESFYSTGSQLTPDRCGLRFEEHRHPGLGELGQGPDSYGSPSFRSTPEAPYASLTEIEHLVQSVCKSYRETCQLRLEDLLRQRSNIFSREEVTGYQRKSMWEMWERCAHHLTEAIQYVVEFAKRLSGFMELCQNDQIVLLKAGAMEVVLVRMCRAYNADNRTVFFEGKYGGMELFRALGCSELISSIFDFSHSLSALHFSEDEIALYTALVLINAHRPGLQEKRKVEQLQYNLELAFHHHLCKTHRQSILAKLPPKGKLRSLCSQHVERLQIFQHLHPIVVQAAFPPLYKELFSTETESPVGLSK

[1] = molecular target: T2, RORγ ligand binding domain (LBD) (Homo sapiens, UniProt P51449); test: TR-FRET Activity Assay (ligand sensing, RORγ-LBD / coactivator peptide interaction, LANCE); assay type: biochemical
T2 construct: made in house; host or cells: E. coli BL-21 (BL3), vector pDEST15
T2 sequence (P51449 269-508 limits assumed): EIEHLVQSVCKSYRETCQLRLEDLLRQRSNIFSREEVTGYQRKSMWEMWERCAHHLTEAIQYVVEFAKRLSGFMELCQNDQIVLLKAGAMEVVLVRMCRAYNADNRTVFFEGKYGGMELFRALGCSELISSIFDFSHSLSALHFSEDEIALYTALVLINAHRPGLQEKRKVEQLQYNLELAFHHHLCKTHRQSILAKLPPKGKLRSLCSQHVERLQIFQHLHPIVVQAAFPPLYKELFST

[2] = second value of the cell, Gal4 reporter gene assay in 293T cells, firefly luciferase
[3] = third value of the cell, Gal4 reporter gene assay in 293T cells, renilla normalised luciferase
[4] = first value of the cell FRET/FF/REN, TR-FRET activity assay, read-out: pIC50 (FRET) (converted)

SMILES	pIC50 (FF) (RORγ; [2])	pIC50 (REN) (RORγ; [3])	IC50 [1, 4] [nM]	pIC50 (FF) (RORγ)	pIC50 (REN) (RORγ)	IC50 [1] [nM]
Cc1c(C(=O)NC[C@@H]2CCCO2)cc(-c2cc(C(C)(C)C)c3c(c2)C2(CCO3)CC2)n1CC1CCCCC1 [17/6]	6.4	6.5	251			
Cc1c(C(=O)NCC(C)(C)NC(=O)C(C)O)cc(-c2cc(C(C)(C)C)cc(C3(C)CC3)c2)n1CC1CCCCC1 (stereo not drawn) [17/121]	7.6	7.7	316			
Cc1c(C(=O)NCCN2CCOCC2)cc(-c2cc(C(C)(C)C)c3c(c2)C2(CCO3)CC2)n1CC1CCCCC1 [1/41]				6.3/6.9/7.0	6.3/6.9/7.0	501
Cc1c(C(=O)NC2CN(C(=O)OC(C)(C)C)C2)cc(-c2cc(C(C)(C)C)cc(C(C)(C)C)c2)n1CC1CCCCC1 [1/15]	5.5/5.5/5.5	5.5/5.5/5.5	3160			
Cc1c(C(=O)NCC2(C)COC2)cc(-c2cc(S(=O)(=O)N3CCCCC3)c3ccccn23)n1CC1CCCCC1 [Example 8, 1-(Cyclohexylmethyl)-2-methyl-N-((3-methyloxetan-3-yl)methyl)-5-(1-(piperidin-1-ylsulfonyl)indolizin-3-yl)-1H-pyrrole-3-carboxamide]	7.2	7.2	3980			
Cc1c(C(=O)NCCOCCO)cc(-c2cc(C(C)(C)C)cc(C(C)(C)C)c2)n1CC1CCCCC1 [1/63]				6.2/6.7/6.7	6.2/6.7/6.7	631
Cc1c(C(=O)NCC(C)(C)NS(C)(=O)=O)cc(-c2ccc(S(=O)(=O)NC(C)(C)C)c(C(C)(C)C)c2)n1CC1CCCCC1 [1/123]	6.8	6.8	501			
Cc1c(C(=O)NC2COC2)cc(-c2cc(C(C)(C)C)cc(C(C)(C)C)c2)n1S(=O)(=O)N(C)C1CCCCC1 [7/5]				6.5/6.3/6.4	6.5/6.3/6.4	316
Cc1c(C(=O)N2CCC(C)(O)CC2)cc(-c2ccc(S(=O)(=O)NC(C)(C)C)c(C(C)(C)C)c2)n1CC1CCCCC1 [17/93]	6.8	6.9	1000			
Cc1c(C(=O)NCC(C)(C)C(N)=O)cc(-c2ccc(S(=O)(=O)NC(C)(C)C)c(C(F)F)c2)n1CC1CCCCC1 [17/128]	8.0	8.0	200			
Cc1c(C(=O)NC2COC2)cc(-c2cn(S(=O)(=O)N3CCCCC3)c3ccccc23)n1CC1CCCCC1 [9/1]	7.5	7.5	501			
Cc1c(C(=O)NC2COC2)cc(-c2cc(C(F)(F)F)cc(C3(C)CC3)c2)n1CC1CCCCC1 [1/79]	7.2	7.2	398			
Cc1c(C(=O)NC2COC2)cc(-c2ccc(C(=O)NCC(C)(C)C)c(C(C)(C)C)c2)n1CC1CCCCC1 [1/32]	6.4	6.2	1580			
CCC(C)(C)NC(=O)c1cc(-c2cc(C(=O)NC3COC3)c(C)n2CC2CCCCC2)cc(C(F)(F)F)c1 [15/3]	7.0	7.1	398			
Cc1c(C(=O)NC2CCOCC2)cc(-c2ccc(S(=O)(=O)NC(C)(C)C)c(C#N)c2)n1CC1CCCCC1 [17/158]	6.1	6.2	794			
Cc1c(C(=O)NC2COC2)cc(-c2cc(C3(C)CC3)c3c(c2)C2(CCO3)CC2)n1CC1CCCCC1 [1/42]	7.5	7.6	251			
Cc1c(C(=O)NCC(C)(C)C(=O)NCCCCO)cc(-c2cc(C(C)(C)C)c3c(c2)C2(CCO3)CC2)n1CC1CCCCC1 [11/7]	7.1	7.2	251			
Cc1c(-c2cc(C(=O)NCC(C)(C)O)c(C)n2CC2CCCCC2)nc(C2(C)CC2)nc1C(C)(C)C [17/82]	6.7	6.7	794			
CC(C)(C)NS(=O)(=O)c1ccc(-c2cc(C(=O)NC3CCOCC3)c(CO)n2CC2CCCCC2)cc1C(C)(C)C [17/117]				6.0/7.6/7.7	6.0/7.6/7.7	1000
Cc1c(C(=O)NC2CCOCC2)cc(-c2ccc(S(=O)(=O)NC(C)(C)C)c(C(C)C)c2)n1CC1CCCCC1 [17/226]	8.2	8.2	316			
Cc1c(C(=O)NC2CCOCC2)cc(-c2ccc(S(=O)(=O)NC(C)(C)C)c3ncccc23)n1CC1CCCCC1 [17/283]	6.7	6.8	1000			
Cc1c(C(=O)NC2CCOCC2)cc(-c2cc(C(=O)NC(C)(C)C)cc(C3(C)CC3)c2)n1CC1CCCCC1 [17/337]	7.7	7.8	1000			
Cc1c(C(=O)NCC2(O)CCOCC2)cc(-c2ccc(S(=O)(=O)NC(C)(C)C)c(C(F)F)c2)n1CC1CCCCC1 [17/129]				6.7/8.0/8.0	6.7/8.0/8.0	200
Cc1c(C(=O)NC2CCOCC2)cc(-c2cc3c(c(C(C)(C)C)c2)OCCC3=O)n1CC1CCCCC1 [17/104]	6.5	6.7	501			
Cc1c(C(=O)NCCCCCN2CCOCC2)cc(-c2cc(C(C)(C)C)cc(C(C)(C)C)c2)n1CC1CCCCC1 [1/75]				5.31/<4.7<4.7	5.31/<4.7<4.7	4900
Cc1c(C(=O)NC2CCOCC2)cc(-c2cc(C(C)(C)C)cc(C3(C)CC3)c2)n1CC1CCCCC1 [1/84]				6.8/7.6/7.6	6.8/7.6/7.6	158

Continued, in another order:

pIC50 (FF) (RORγ; [2])	pIC50 (REN) (RORγ; [3])	IC50 [1, 4] [nM]	SMILES	pIC50 (FF) (RORγ)	pIC50 (REN) (RORγ)	IC50 [1] [nM]
8.0	8.0	501	Cc1c(C(=O)N2CC3(CCOCC3)C2)cc(-c2ccc(S(=O)(=O)NC(C)(C)C)c(C(F)(F)F)c2)n1CC1CCCCC1 [17/211]			
6.1	6.5	1580	Cc1c(C(=O)NC2CCOCC2)cc(-c2cc3c(c(C(C)(C)C)c2)OCCC3=NO)n1CC1CCCCC1 [18/3]			
7.1	7.2	1260	Cc1c(C(=O)NCCC(C)(C)C(=O)O)cc(-c2ccc(S(=O)(=O)NC(C)(C)C)c(C(F)(F)F)c2Cl)n1CC1CCCCC1 [17/289]			
7.0	7.2	501	CC(=O)N1CC(NC(=O)c2cc(-c3cc(C(C)(C)C)cc(C(C)(C)C)c3)n(CC3CCCCC3)c2C)C1 [Example 5, N-(1-Acetylazetidin-3-yl)-1-(cyclohexylmethyl)-5-(3,5-di-tert-butylphenyl)-2-methyl-1H-pyrrole-3-carboxamide]			
8.0	8.2	251	Cc1c(C(=O)NC2CCOCC2)cc(-c2ccc(S(=O)(=O)NC(C)(C)CCF)c(C(F)(F)F)c2)n1CC1CCCCC1 [18/2]			
7.4	7.5	631	Cc1c(C(=O)NCCC(C)(C)C(=O)O)cc(-c2ccc(S(=O)(=O)NC(C)(C)C)c(C(F)(F)F)c2)n1CC1CCCCC1 [17/222]			
7.0	7.2	1580	Cc1c(C(=O)NCCC(C)(C)C(=O)O)cc(-c2ccc(S(=O)(=O)NC(C)(C)C)c(C(C)(C)C)c2)n1CC1CCCCC1 [17/163]			
6.8	7.0	631	Cc1c(C(=O)NC2CCOCC2)cc(-c2ccc(S(=O)(=O)NC(C)(C)C)c(C(F)(F)F)c2)n1CC1CCC(F)(F)CC1 [17/256]			
6.6	6.6	631	Cc1c(C(=O)NC2CCOCC2)cc(-c2ccc(S(=O)(=O)NC(C)(C)C)c(C(F)(F)F)c2)n1[C@H](C)C1CCCCC1 [17/254]			
6.8	6.9	316	Cc1c(C(=O)NC2COC2)cc(-c2cc(C(C)(C)C)cc(C(C)(C)C)c2)n1C(C)C1CCCCC1 (stereo not drawn) [Example 1, 1-(1-Cyclohexylethyl)-5-(3,5-di-tert-butylphenyl)-2-methyl-N-(oxetan-3-yl)-1H-pyrrole-3-carboxamide]			
7.5	7.5	251	Cc1c(C(=O)NC2CCOCC2)cc(-c2ccc(S(=O)(=O)NC(C)(C)C)c(C(F)(F)F)c2)n1CC1CCCC1 [17/214]			
7.5	7.6	251	Cc1c(C(=O)NC2CCOCC2)cc(-c2cc(C(F)(F)F)c(S(=O)(=O)NC(C)(C)C)cc2F)n1CC1CCCCC1 [17/230]			
6.6	6.6	316	Cc1c(C(=O)N[C@H]2C[C@H](C(=O)O)C2)cc(-c2ccc(S(=O)(=O)NC(C)(C)C)c(C(F)(F)F)c2)n1CC1CCCCC1 [17/220]			
